From patent publication US20240000786A1, “COMPOSITION FOR ENHANCING INTRA-CELLULAR NITRIC OXIDE GENERATION” (INSTITUTE OF LIFE SCIENCES, priority 2020, published 2024)
One block for each molecule: values may come before it. Peptide text beside a SMILES is read from it.

How the values were obtained:
[1] = biological target: T1, iNOS-NOSIP protein interaction (Homo sapiens, UniProt Q9Y314); assay: SPR: inhibition of rNOSIP association with immobilized recombinant iNOS by iNOS peptides / small molecules; format: binding; settings: for inhibition hierarchy of iNOS-NOSIP protein interaction: SPR, rank order; for kon / Kd: analyte rNOSIP alone or + peptide/small molecule, ligand r iNOS, 20° C.; for kon: 1:1 Langmuir, read-out: Ka; for Kd: Kd/Ka; for inhibition of binding of NOSIP with iNOS ligand by small molecules: rNOSIP 250 nM, small molecules 1 uM, SPR (FIG. 4); for inhibition of iNOS-NOSIP protein interaction by iNOS derived peptides: iNOS peptides 250 nM, proteins 125 nM, SPR (FIG. 2(a))
T1 construct: made in house; host or cells: E. coli BL21 (DE3)
T1 sequence (Q9Y314 with tags, fused parts or gaps): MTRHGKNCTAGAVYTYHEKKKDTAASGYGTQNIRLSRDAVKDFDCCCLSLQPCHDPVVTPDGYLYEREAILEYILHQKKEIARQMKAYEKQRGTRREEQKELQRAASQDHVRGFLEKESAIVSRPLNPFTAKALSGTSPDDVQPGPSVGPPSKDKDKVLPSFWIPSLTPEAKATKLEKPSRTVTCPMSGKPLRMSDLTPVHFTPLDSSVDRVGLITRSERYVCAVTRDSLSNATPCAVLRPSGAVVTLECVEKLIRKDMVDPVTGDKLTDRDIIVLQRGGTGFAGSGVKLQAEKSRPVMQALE
Protocol: Four different iNOS peptides were synthesized commercially by China peptides and iNOS peptides were used for molecular interaction studies with immobilized recombinant iNOS purified protein. The iNOS peptides mediated inhibition of rNOSIP and riNOS protein association in Bio-Rad XPR 36 surface plasmon resonance biosensor instrument. […] 250 nM of iNOS peptides was used for inhibition assay with immobilized ligand(recombinant iNOS) in SPR analysis. Similar condition and concentration of small molecules were used for inhibition of recombinant protein association with immobilized ligand. […] The rNOSIP protein was incubated with iNOS derived peptide/small molecules for 30 minutes in ice for inhibition assay before the SPR application in our study. The molecular interaction was carried out at 20° C. and kinetic parameters were determined, after fitting the association and dissociation curves to a 1:1 (Langmuir)-binding model. An activated channel without immobilized ligand was used to evaluate nonspecific binding. The response curves were also recorded on control surfaces. Results were calculated after subtraction of the control values using the ProteOn Manager software.
The collected sensorgram data were processed by reference subtraction using double-referencing with the in-line blank buffer. The integrated ProteOn Manager software was used to fit the data with the Langmuir model describing a 1:1 binding stoichiometry. Ka is the association rate constant, Kd is the dissociation rate constant, and KD is the equilibrium dissociation constant, defined by the Kd/Ka ratio for the analytes-ligand binding.
The five small molecules bind with NOSIP and inhibit the association of recombinant NOSIP and recombinant iNOS. The rNOSIP protein was incubated with iNOS derived peptide or small molecules for 30 minutes in ice prior to SPR application. The molecular interaction was carried out at 20° C. and kinetic parameters were determined, after fitting the association and dissociation curves to a 1:1 (Langmuir)-binding model. An activated channel without immobilized ligand (recombinant iNOS) was used to evaluate nonspecific binding. The response curves were also recorded on control surfaces. Results were calculated after subtraction of the control values using the ProteOn Manager software.
The collected sensorgram data were processed by reference subtraction using double-referencing with the in-line blank buffer. The integrated ProteOn
Manager software was used to fit the data with the Langmuir model describing a 1:1 binding stoichiometry. Ka is the association rate constant, Kd is the dissociation rate constant, and KD is the equilibrium dissociation constant, defined by the Kd/Ka ratio for the analytes—ligand binding.

[2] = biological target: T2, rNOSIP (Homo sapiens, UniProt Q9Y314); assay: Isothermal titration calorimetry (ITC) of rNOSIP with small molecules / 18 mer iNOS peptide (PP2); format: binding; settings: for Fold Change (KD): ITC KD relative to iNOS-Peptide2 = 1; for SM binding affinity with NOSIP, hierarchy: ITC, rank order
T2 construct: made in house; host or cells: E. coli BL21 (DE3)
T2 sequence (Q9Y314 with tags, fused parts or gaps): T1 sequence (Q9Y314 with tags, fused parts or gaps)
Protocol: The 18 mer iNOS peptide (PP2) and small molecules were used for physical association of molecules in calorimetric analysis. The molecular association leads to thermodynamics changes such as Gibb's free energy change (ΔG), entropy change (ΔS), enthalpy change (ΔH) and number of binding sites (N) in interacting solution were investigated by isothermal calorimetry MICROCAL PEQ (Malvern) at 25° C. […] The experiment consisted of multiple injections and each injection contained 1.5 μl of binding solution (recombinant NOSIP solution) with 120 second spacing time between subsequent injections. Sequential titrations were carried out and the sample solution was continuously stirred at 270 rpm by the rotating paddle attached to the syringe needle. Multiple injections of NOSIP made into the sample cell containing interacting solution of peptide and small molecules. The titration curves were analyzed using the analysis software provided with the calorimeter.
The 18 mer iNOS peptide (PP2) and five small molecules were used to analyze physical association in calorimetric analysis. The molecular association leads to thermodynamics changes such as Gibb's free energy change (ΔG), entropy change (ΔS), enthalpy change (ΔH) and number of binding sites (N) in interacting solution were investigated by isothermal calorimetry MICROCAL PEQ (Malvern) at 25° C. […] The experiment consisted of multiple injections and each injection contained 1.5 μl of binding solution with 120 second spacing time between subsequent injections. Sequential titrations were carried out and the sample solution was continuously stirred at 270 rpm by the rotating paddle attached to the syringe needle. Multiple injections of NOSIP made into the sample cell containing interacting solution of peptide and small molecules. The titration curves were analyzed using the analysis software provided with the calorimeter.

[3] = biological target: T3, recombinant Nitric oxide synthase interacting protein (NOSIP)
T3 chain: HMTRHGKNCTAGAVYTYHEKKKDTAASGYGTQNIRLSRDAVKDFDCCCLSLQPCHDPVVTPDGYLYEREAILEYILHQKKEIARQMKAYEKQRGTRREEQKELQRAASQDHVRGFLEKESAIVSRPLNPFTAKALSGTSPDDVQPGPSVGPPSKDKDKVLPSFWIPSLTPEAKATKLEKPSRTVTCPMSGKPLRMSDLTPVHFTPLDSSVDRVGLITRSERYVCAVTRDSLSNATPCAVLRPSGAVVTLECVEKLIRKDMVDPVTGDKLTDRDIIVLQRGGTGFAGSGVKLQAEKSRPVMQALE

[4] = ITC 25° C., small molecule/peptide in cell, NOSIP in syringe
[5] = 10 μM iNOS peptide in the chamber, 150 μM rNOSIP in syringe, 25° C. (FIG. 3)

kon [1]: 0.807 M⁻¹ s⁻¹
Kd [1]: 704000 nM
ΔG ([2]; ITC 25° C.): -7.5 kcal/mol
ΔH ([2]; ITC 25° C.): -27.3 ± 1.11 kcal/mol
−TΔS ([2]; ITC 25° C.): 19.8 kcal/mol
Kd [2, 4]: 524 ± 64.9 nM
N (Sites) [2, 4]: 0.989
Fold Change (KD) [2]: 0.956
Molecule: NS(=O)(=O)c1ccc(CCNC(=O)CCCn2c(SCC(=O)c3ccc(Cl)c(Cl)c3)nc3ccsc3c2=O)cc1 [MCULE-3765839647, 4-(2-{[2-(3,4-dichlorophenyl)-2-oxoethyl]sulfanyl}-4-oxo-3H,4H-thieno[3,2-d]pyrimidin-3-yl)-N-[2-(4-sulfamoylphenyl)ethyl]butanamide]
inhibition hierarchy of iNOS-NOSIP protein interaction [1]: CC4>CC11>CC6>CC5>CC13>iNOS Peptide 2
inhibition of binding of NOSIP with iNOS ligand by small molecules [1]: inhibit the binding of NOSIP with iNOS ligand
SM binding affinity with NOSIP, hierarchy [2]: CC4>CC11>CC6>CC5>CC13>Peptide 2 (iNOS)

kon [1]: 0.835 M⁻¹ s⁻¹
Kd [1]: 543000 nM
ΔG ([2]; ITC 25° C.): -8.55 kcal/mol
ΔH ([2]; ITC 25° C.): -28.5 ± 0.694 kcal/mol
−TΔS ([2]; ITC 25° C.): 20.0 kcal/mol
Kd [2, 4]: 542 ± 54.9 nM
N (Sites) [2, 4]: 0.864
Fold Change (KD) [2]: 0.989
Molecule: CCCCN=c1scc(-c2ccc(O)c(C(N)=O)c2)n1N=Cc1cc(Br)c(O)c(OC)c1 [MCULE-8395438746, 5-(3-{[(3-bromo-4-hydroxy-5-methoxyphenyl)methylidene]amino}-2-(butylimino)-2,3-dihydro-1,3-thiazol-4-yl)-2-hydroxybenzamide]
inhibition hierarchy of iNOS-NOSIP protein interaction [1]: CC4>CC11>CC6>CC5>CC13>iNOS Peptide 2
inhibition of binding of NOSIP with iNOS ligand by small molecules [1]: inhibit the binding of NOSIP with iNOS ligand
SM binding affinity with NOSIP, hierarchy [2]: CC4>CC11>CC6>CC5>CC13>Peptide 2 (iNOS)

kon [1]: 0.822 M⁻¹ s⁻¹
Kd [1]: 588000 nM
ΔG ([2]; ITC 25° C.): -8.56 kcal/mol
ΔH ([2]; ITC 25° C.): -29.3 ± 1.12 kcal/mol
−TΔS ([2]; ITC 25° C.): 20.8 kcal/mol
Kd [2, 4]: 535 ± 80.8 nM
N (Sites) [2, 4]: 0.794
Fold Change (KD) [2]: 0.976
Molecule: Cc1ccc(-c2nnn(CC(=O)N(Cc3ccco3)C(C(=O)NC(C)(C)C)c3ccc(O)cc3)n2)cc1 (stereo not shown) [MCULE-8469877005, N-tert-butyl-2-{N-[(furan-2-yl)methyl]-2-[5-(4-methylphenyl)-2H-1,2,3,4-tetrazol-2-yl]acetamido}-2-(4-hydroxyphenyl) acetamide]
inhibition hierarchy of iNOS-NOSIP protein interaction [1]: CC4>CC11>CC6>CC5>CC13>iNOS Peptide 2
inhibition of binding of NOSIP with iNOS ligand by small molecules [1]: inhibit the binding of NOSIP with iNOS ligand
SM binding affinity with NOSIP, hierarchy [2]: CC4>CC11>CC6>CC5>CC13>Peptide 2 (iNOS)

Molecule: CC[C@H](C)[C@H](NC(=O)[C@H](CCCCN)NC(=O)[C@H](C)NC(=O)[C@H](CCC(=O)O)NC(=O)[C@H](CCCCN)NC(=O)[C@H](Cc1ccccc1)NC(=O)[C@H](CO)NC(=O)CNC(=O)[C@H](Cc1ccc(O)cc1)NC(=O)[C@H](Cc1ccc(O)cc1)NC(=O)[C@H](CCC(N)=O)NC(=O)[C@@H](N)CC(N)=O)C(=O)N[C@@H](CCC(=O)O)C(=O)N[C@@H](CCC(=O)O)C(=O)N[C@@H](Cc1c[nH]cn1)C(=O)N[C@@H](CC(C)C)C(=O)N[C@@H](C)C(=O)N[C@@H](CCCNC(=N)N)C(=O)O [iNOS-Peptide2] (H-NQYYGSFKEAKIEEHLAR-OH; N-terminus and C-terminus assumed)
Fold Change (KD) ([1]; SPR KD relative to rNOSIP + iNOS peptide2 = 1): 1
inhibition hierarchy of iNOS-NOSIP protein interaction [1]: CC4>CC11>CC6>CC5>CC13>iNOS Peptide 2
kon [1]: 536 M⁻¹ s⁻¹
inhibition of iNOS-NOSIP protein interaction by iNOS derived peptides ([1]; listed as PP2): inhibited
inhibition of iNOS-NOSIP protein interaction by iNOS derived peptides ([1]; listed as PP-2): block significantly interaction between recombinant iNOS and NOSIP
Kd [2, 5]: 493 ± 63.2 nM
ΔG [2, 5]: -8.61 kcal/mol
ΔH [2, 5]: -9.07 ± 0.251 kcal/mol
−TΔS [2, 5]: 0.459 kcal/mol
ΔG ([2]; ITC 25° C.): -8.54 kcal/mol
ΔH ([2]; ITC 25° C.): -8.44 ± 0.271 kcal/mol
−TΔS ([2]; ITC 25° C.): -0.10 kcal/mol
N (Sites) [2, 4]: 1.09
Fold Change (KD) [2]: 1
SM binding affinity with NOSIP, hierarchy [2]: CC4>CC11>CC6>CC5>CC13>Peptide 2 (iNOS)

inhibition of iNOS-NOSIP protein interaction by iNOS derived peptides [1]: inhibited
Molecule: PP1: iNOS derived peptide, SEQ ID No: 25 (TGDELIFATKQAWR; Human)
inhibition of iNOS-NOSIP protein interaction by iNOS derived peptides ([1]; listed as Peptide-1): less efficient in inhibiting interaction between iNOS and NOSIP

inhibition of iNOS-NOSIP protein interaction by iNOS derived peptides [1]: inhibited
Molecule: PP3: iNOS derived peptide, SEQ ID No: 27 (GWKPKYGRFDVVPLVLQANGRDPELFEIPPDLVL; Human)
inhibition of iNOS-NOSIP protein interaction by iNOS derived peptides ([1]; listed as Peptide3): less efficient in inhibiting interaction between iNOS and NOSIP

inhibition of iNOS-NOSIP protein interaction by iNOS derived peptides [1]: inhibited
Molecule: PP4: iNOS derived peptide, SEQ ID No: 28 (NLQVFDARSCSTAREMFEHICRHVRYSTNNGNI; Human)
inhibition of iNOS-NOSIP protein interaction by iNOS derived peptides ([1]; listed as peptide-4): less efficient in inhibiting interaction between iNOS and NOSIP

B1: recombinant human iNOS oxygenase domain (protein)
chain: HMPRHVRIKNWGSGMTFQDTLHHKAKGILTCRSKSCLGSIMTPKSLTRGPRDKPTPPDELLPQAIEFVNQYYGSFKEAKIEEHLARVEAVTKEIETTGTYQLTGDELIFATKQAWRNAPRCIGRIQWSNLQVFDARSCSTAREMFEHICRHVRYSTNNGNIRSAITVFPQRSDGKHDFRVWNAQLIRYAGYQMPDGSIRGDPANVEFTQLCIDLGWKPKYGRFDVVPLVLQANGRDPELFEIPPDLVLEVAMEHPKYEWFRELELKWYALPAVANMLLEVGGLEFPGCPFNGWYMGTEIGVRDFCDVQRYNILEEVGRRMGLETHKLASLWKDQAVVEINIAVLHSFQKQNVTIMDHHSAAESFMKYMQNEYRSRGGCPADWIWLVPPMSGSITPVFHQEMLNYVLSPFYYYQVEAWKTHVWQDEKLE
iNOS enzyme activity (nitrite quantified by Griess reaction, L-Arginine substrate) [3]: recombinant NOSIP inhibits enzyme activity of iNOS
